Results from US10428028B2, “HDAC inhibitors” (BIOMARIN PHARMACEUTICAL INC., priority 2013, dated 2019).

Tests used:
HDAC1 = HDAC1 (Homo sapiens (Human), UniProt Q13547); experiment: HDAC enzyme inhibition assay (Fluor-de-Lys), HDAC1; format: biochemical; conditions: 2 hours pre-incubation
Experimental: The HDAC activity inhibition assay was performed as follows to determine the ability of a test compound to inhibit HDAC enzymatic activity. Serial dilutions of HDAC inhibitors were prepared in HDAC assay buffer (25 mM Tris/HCl, pH 8.0, 137 mM NaCl, 2.7 mM KCl, 1 mM MgCl2, pH 8) in 96-well assay plates (Fisher scientific, #07-200-309) and were pre-incubated for 2 hours at room temperature in the presence of 125 μg/ml BSA and purified HDAC1 (BPS Bioscience, San Diego, Calif., #50051), HDAC2 (BPS Bioscience, #50053), or HDAC3/NcoR2 (BPS Bioscience, #50003) at concentrations of 1.25, 1.32, and 0.167 μg/mL, respectively. Following pre-incubation, Fluor-de-Lys™ substrate (Enzo Life Sciences, Plymouth Meeting, Pa., BML-KI104-0050) was added to a final concentration of 10 μM and plates were further incubated for 30 minutes at room temperature. The enzymatic reaction was stopped by addition of Trichostatin A (Sigma-Aldrich, St Louis, Mo., #T8552, final concentration: 100 nM) and trypsin (MP Biomedicals, Solon, Ohio, #02101179) was added to reach a final concentration of 100 μg/mL. After a 15 minute incubation at room temperature, fluorescence was recorded using a Spectramax M2 fluorometer (Molecular Devices, Sunnyvale, Calif.) with excitation at 365 nm and emission at 460 nm. IC50 values were calculated by using a sigmoidal dose-response (variable slope) equation in GraphPad Prism® 5 for Windows (GraphPad Software, La Jolla, Calif.). Results for selected compounds in the HDAC activity inhibition assay are presented in Table 5 (IC50 ranges: IA>20 μM, A<1 μM, 1<B<5 μM, 5<C<10 μM, 10<D<20 μM, ND: not determined).

[1] = test system: GM 15850 (lymphoblastoid cells line) cells; experiment: In-cell deacetylase inhibition assay (DAC assay); format: cell-based; conditions: Homo sapiens, GM15850; GM 15850 cells, 4 h incubation
Experimental: GM 15850 (lymphoblastoid cells line) cells were seeded in 96-well plates at an appropriate density (100,000 cells/well) in 90 μL, RPMI1640 medium containing 10% v/v fetal bovine serum (FBS), 1% v/v penicillin/streptomycin, and 1% v/v L-glutamine. Compound dilutions were made in 100% DMSO followed by parallel dilution in media with 2% DMSO. 10 μl of the compound dilutions were added to the cells to achieve the desired concentrations. The final concentration of DMSO in each well was 0.2%. The cells were incubated for 4 h at 37° C. with 5% CO2. After incubation, the cells were centrifuged down and the supernatant was removed. The cell pellets were washed with 100 μL, phosphate-buffered saline (PBS) and then lysed with 45 μL, lysis buffer (HDAC assay buffer at pH 8.0 (25 mM Tris/HCl, 137 mM NaCl, 2.7 mM KCl, 1 mM MgCl2)+1% v/v Igepal CA-630). To initiate the reaction, the HDAC substrate KI-104 (Enzo Life Sciences, Farmingdale, N.Y.) was added to a final concentration of 50 μM. The reaction was stopped after 30 min incubation by addition of 50 μL, developer (6 mg/mL trypsin in HDAC assay buffer). The reaction was allowed to develop for 30 min at room temperature and the fluorescence signal was detected using a fluorometer (Spectramax M2, Molecular Devices, Sunnyvale, Calif.) with excitation and emission wavelengths of 360 nm and 470 nm respectively. The data was fitted to a sigmoidal dose response equation with variable slope in GraphPad Prism 5.0 (GraphPad Software, La Jolla, Calif.) to determine IC50. Bottom and top of the curve were fixed to the average fluorescence response of control wells with no cells and cells but no compound respectively. IC50's are reported in Table 5, where A stands for IC50 less than 1 μM, B between 1 and 5 μM, C from 5 to 10 μM, D from 10 to 20 μM, and IA for IC50 above 20 μM.

HDAC1, sequence (Q13547 whole entry): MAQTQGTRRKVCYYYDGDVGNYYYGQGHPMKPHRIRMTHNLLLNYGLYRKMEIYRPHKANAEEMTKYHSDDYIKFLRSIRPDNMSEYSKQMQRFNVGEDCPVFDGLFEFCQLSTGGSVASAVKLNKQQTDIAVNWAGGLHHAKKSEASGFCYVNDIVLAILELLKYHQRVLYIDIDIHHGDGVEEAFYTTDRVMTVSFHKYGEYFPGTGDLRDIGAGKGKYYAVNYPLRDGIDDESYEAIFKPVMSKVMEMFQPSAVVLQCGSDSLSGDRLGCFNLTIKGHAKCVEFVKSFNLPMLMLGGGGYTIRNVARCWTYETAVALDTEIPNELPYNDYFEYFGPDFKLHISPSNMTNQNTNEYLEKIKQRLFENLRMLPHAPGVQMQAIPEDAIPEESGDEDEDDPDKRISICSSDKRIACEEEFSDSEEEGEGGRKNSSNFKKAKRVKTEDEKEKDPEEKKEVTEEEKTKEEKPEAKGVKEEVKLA

SMILES	IC50 (HDAC1)	IC50 [1]
Cc1ccc(Cn2ncc3cc(C(=O)Nc4ccccc4N)ccc32)c(C)n1 [Compound A5]	< 1000 nM	< 1000 nM
Cc1ccc(Cn2ncc3cc(C(=O)Nc4ccc(F)cc4N)ccc32)c(C)n1 [Compound A8]	< 1000 nM	1000 to 5000 nM
Cn1cc(Cn2ncc3cc(C(=O)Nc4ccccc4N)ccc32)cn1 [Compound A3]	< 1000 nM	< 1000 nM
Nc1cc(F)ccc1NC(=O)c1ccc2c(cnn2CC2CC2)c1 [Compound A12]	1000 to 5000 nM	> 20000 nM
Nc1cc(F)ccc1NC(=O)c1ccc2c(cnn2Cc2cncc(F)c2)c1 [Compound A7]	< 1000 nM	1000 to 5000 nM
Nc1ccccc1NC(=O)c1ccc2nn(Cc3cccnc3)cc2c1 [Compound A13]	< 1000 nM	< 1000 nM

Other lines, results leading:

IC50 (HDAC1)	IC50 [1]	SMILES
< 1000 nM	–	Nc1ccccc1NC(=O)c1ccc2c(cnn2Cc2ccc(F)c(F)c2)c1 [Compound A9]
< 1000 nM	< 1000 nM	Nc1ccccc1NC(=O)c1ccc2c(cnn2Cc2ccccc2)c1 [Compound A2]
< 1000 nM	< 1000 nM	Nc1ccccc1NC(=O)c1ccc2c(cnn2Cc2cncc(F)c2)c1 [Compound A4, N-(2-aminophenyl)-1-((5-fluoropyridin-3-yl)methyl)-1H-indazole-5-carboxamide]
< 1000 nM	< 1000 nM	Nc1ccccc1NC(=O)c1ccc2nn(Cc3cncc(F)c3)cc2c1 [Compound A14, N-(2-aminophenyl)-2-((5-fluoropyridin-3-yl)methyl)-2H-indazole-5-carboxamide]
< 1000 nM	< 1000 nM	Nc1ccccc1NC(=O)c1ccc2c(cnn2Cc2cccnc2)c1 [Compound A1]
< 1000 nM	< 1000 nM	Cc1ccc(Cn2cc3cc(C(=O)Nc4ccccc4N)ccc3n2)c(C)n1 [Compound A15]
< 1000 nM	1000 to 5000 nM	Nc1cc(F)ccc1NC(=O)c1ccc2c(cnn2Cc2cccnc2)c1 [Compound A6]
